The record followed here is ChEMBL document CHEMBL4130561, “Design and Synthesis of N1-Modified Imidazoquinoline Agonists for Selective Activation of Toll-like Receptors 7 and 8” (ACS Med Chem Lett, 2017).

The term EC50 denotes the concentration at which the effect is half-maximal.

The target of assay [1] is T1, Toll-like receptor 8 (Homo sapiens) (UniProt Q9NR97).
T1 sequence (whole entry): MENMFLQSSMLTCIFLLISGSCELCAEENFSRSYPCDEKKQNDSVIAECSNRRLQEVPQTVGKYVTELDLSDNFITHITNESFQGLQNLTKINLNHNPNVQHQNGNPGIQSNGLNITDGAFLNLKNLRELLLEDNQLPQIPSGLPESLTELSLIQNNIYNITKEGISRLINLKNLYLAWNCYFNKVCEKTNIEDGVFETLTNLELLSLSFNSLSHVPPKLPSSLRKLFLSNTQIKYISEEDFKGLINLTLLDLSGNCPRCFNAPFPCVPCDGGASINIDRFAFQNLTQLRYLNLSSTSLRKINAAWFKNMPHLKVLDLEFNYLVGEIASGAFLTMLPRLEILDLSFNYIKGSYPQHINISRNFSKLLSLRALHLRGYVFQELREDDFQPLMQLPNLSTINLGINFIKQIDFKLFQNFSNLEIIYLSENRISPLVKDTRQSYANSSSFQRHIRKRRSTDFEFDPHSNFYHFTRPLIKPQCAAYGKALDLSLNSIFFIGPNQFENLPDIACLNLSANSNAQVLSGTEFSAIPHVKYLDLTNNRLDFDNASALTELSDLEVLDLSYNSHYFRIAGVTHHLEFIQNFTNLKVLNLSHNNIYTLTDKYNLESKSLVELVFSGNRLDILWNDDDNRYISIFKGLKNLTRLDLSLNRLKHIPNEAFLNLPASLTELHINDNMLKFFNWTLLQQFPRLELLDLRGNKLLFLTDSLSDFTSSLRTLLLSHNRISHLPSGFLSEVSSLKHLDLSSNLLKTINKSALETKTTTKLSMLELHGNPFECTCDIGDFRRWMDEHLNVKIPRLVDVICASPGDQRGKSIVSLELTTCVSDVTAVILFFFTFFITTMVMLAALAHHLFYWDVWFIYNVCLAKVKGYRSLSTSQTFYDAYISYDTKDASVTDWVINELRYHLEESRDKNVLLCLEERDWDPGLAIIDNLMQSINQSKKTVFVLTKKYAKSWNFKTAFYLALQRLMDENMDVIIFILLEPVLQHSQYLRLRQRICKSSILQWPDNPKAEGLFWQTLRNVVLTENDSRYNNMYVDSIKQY
The experiment in a line: Agonist activity at human TLR8 expressed in HEK cells at 180 uM after 8 to 12 hrs by NFkappaB/SEAP reporter gene assay. The class given is cell-based. (A reporter such as luciferase makes a cellular process visible.)

The target in the next assay is T2, Toll-like receptor 7 (Homo sapiens, UniProt Q9NYK1).
T2 sequence (Q9NYK1 whole entry): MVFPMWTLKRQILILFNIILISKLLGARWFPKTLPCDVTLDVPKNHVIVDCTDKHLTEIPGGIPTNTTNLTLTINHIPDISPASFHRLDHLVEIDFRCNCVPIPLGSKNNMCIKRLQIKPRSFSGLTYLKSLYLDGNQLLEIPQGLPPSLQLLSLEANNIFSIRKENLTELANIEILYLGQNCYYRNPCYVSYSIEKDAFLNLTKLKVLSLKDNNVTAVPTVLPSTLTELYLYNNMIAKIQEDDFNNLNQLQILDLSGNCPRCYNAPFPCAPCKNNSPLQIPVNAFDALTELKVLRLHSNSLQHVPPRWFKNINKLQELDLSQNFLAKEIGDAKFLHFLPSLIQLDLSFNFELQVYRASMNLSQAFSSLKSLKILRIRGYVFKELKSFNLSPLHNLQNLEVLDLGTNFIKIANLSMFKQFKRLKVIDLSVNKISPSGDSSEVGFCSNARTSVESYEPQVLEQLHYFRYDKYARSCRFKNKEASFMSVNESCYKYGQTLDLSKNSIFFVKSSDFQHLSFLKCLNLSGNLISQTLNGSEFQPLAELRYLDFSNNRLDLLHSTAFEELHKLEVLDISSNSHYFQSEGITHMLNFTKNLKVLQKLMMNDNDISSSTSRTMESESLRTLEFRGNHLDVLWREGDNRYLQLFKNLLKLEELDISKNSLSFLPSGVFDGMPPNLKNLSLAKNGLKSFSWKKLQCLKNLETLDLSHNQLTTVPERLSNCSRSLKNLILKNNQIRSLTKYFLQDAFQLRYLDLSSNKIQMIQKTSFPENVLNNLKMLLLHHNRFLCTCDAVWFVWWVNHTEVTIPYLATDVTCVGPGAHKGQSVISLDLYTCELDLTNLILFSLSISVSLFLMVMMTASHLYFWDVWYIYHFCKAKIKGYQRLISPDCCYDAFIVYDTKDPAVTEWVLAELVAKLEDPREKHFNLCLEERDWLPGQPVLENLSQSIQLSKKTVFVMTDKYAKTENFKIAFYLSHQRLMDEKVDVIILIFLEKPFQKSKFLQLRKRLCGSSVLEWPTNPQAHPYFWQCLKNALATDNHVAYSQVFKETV
The experiment in a line: Agonist activity at human TLR7 expressed in HEK cells after 8 to 12 hrs by NFkappaB/SEAP reporter gene assay. It is filed as cell-based.

The next assay deals with T3, Toll-like receptor 8 (Homo sapiens, UniProt Q9NR97).
T3 sequence (Q9NR97 whole entry): T1 sequence (whole entry)
The assay can be described thus: Agonist activity at human TLR8 expressed in HEK cells after 8 to 12 hrs by NFkappaB/SEAP reporter gene assay. The class given is cell-based.

For assay [2], the target named is T4, Toll-like receptor 7 (Homo sapiens) (UniProt Q9NYK1).
T4 sequence (whole entry): T2 sequence (Q9NYK1 whole entry)
The experiment in a line: Agonist activity at human TLR7 expressed in HEK cells at 180 uM after 8 to 12 hrs by NFkappaB/SEAP reporter gene assay. It is filed as cell-based.

Assay [3] relates to PBMC. The experiment in a line: Immunostimulatory activity in human PBMC assessed as increase in TNFalpha levels at 12.5 uM after 24 hrs by ELISA. The class given is functional, cell-based.
In assay [4] the test system is PBMC. The experiment in a line: Immunostimulatory activity in human PBMC assessed as increase in IL-1beta levels at 0.39 to 50 uM after 24 hrs by ELISA. It is filed as functional, cell-based.
Assay [5] relates to PBMC. The assay can be described thus: Immunostimulatory activity in human PBMC assessed as increase in IL-12p70 levels at 0.39 to 50 uM after 24 hrs by ELISA. It is filed as functional, cell-based. Background: In an ELISA, binding on a coated surface is turned into a signal by an enzyme label.
The test system of assay [6] is PBMC. The assay can be described thus: Immunostimulatory activity in human PBMC assessed as increase in IFNgamma levels at 0.39 to 50 uM after 24 hrs by ELISA. It is filed as functional, cell-based.
For assay [7], the system named is PBMC. The experiment in a line: Immunostimulatory activity in human PBMC assessed as increase in TNFalpha levels at 0.39 to 50 uM after 24 hrs by ELISA. It is filed as functional, cell-based.
Assay [8] relates to PBMC. The assay can be described thus: Immunostimulatory activity in human PBMC assessed as increase in IL-12p70 levels at 12.5 uM after 24 hrs by ELISA. The class given is functional, cell-based.
Assay [9] concerns PBMC. The experiment in a line: Immunostimulatory activity in human PBMC assessed as increase in IFNgamma levels at 12.5 uM after 24 hrs by ELISA. It is filed as functional, cell-based.
Assay [10] has as its system PBMC. The experiment in a line: Immunostimulatory activity in human PBMC assessed as increase in IL-1beta levels at 12.5 uM after 24 hrs by ELISA. The class given is functional, cell-based.
In assay [11] the test system is PBMC. The experiment in a line: Immunostimulatory activity in human PBMC assessed as increase in TNFalpha levels at 1 uM after 24 hrs by ELISA. The class given is functional, cell-based.
Assay [12] relates to PBMC. The assay can be described thus: Immunostimulatory activity in human PBMC assessed as increase in IL-1beta levels at 1 uM after 24 hrs by ELISA. It is filed as functional, cell-based.
The test system of assay [13] is PBMC. The experiment in a line: Immunostimulatory activity in human PBMC assessed as increase in IFNgamma levels at 1 uM after 24 hrs by ELISA. It is filed as functional, cell-based.

Activity calls are given as the source filed them. No cut-off for these calls is given here.

Take `CCCCc1nc2c(N)nc3cc(C(=O)OC)ccc3c2n1CCCCCC(=O)OC`: in [1], the result was inactive.

On to `CCCCc1nc2c(N)nc3cc(C(=O)OC)ccc3c2n1CCO`, for which the EC50 turned out to be 14.4 µM at Toll-like receptor 7 and 37 µM at Toll-like receptor 8.

For `CCCCCCCC(=O)OC(C)Cn1c(CCCC)nc2c(N)nc3cc(C(=O)OC)ccc3c21` (configuration not stated), the result in [1] and in assay [2] was inactive.

Take `CCCCc1nc2c(N)nc3cc(C(=O)OC)ccc3c2n1CCSCC`: the outcome in assay [1] was inactive.

Regarding `CCCCc1nc2c(N)nc3cc(C(=O)OC)ccc3c2n1Cc1ccc(CN)cc1`, the result with PBMC [3] was Active.

For `CC(C)Cn1cnc2c(N)nc3ccccc3c21` [IMIQUIMOD], the result (in assay [1]; with PBMC [4]; in the assay on PBMC [5]; in the assay with PBMC [6]; with PBMC [7]) was inactive. The compound also showed an EC50 at Toll-like receptor 7 of 11.4 µM.

On to `CCCCc1nc2c(N)nc3cc(C(=O)OC)ccc3c2n1CC(C)OC(C)=O` (configuration not stated), for which, in [1], the outcome was inactive. Moreover, at Toll-like receptor 7, the EC50 stood at 3.06 µM.

In the case of `CCCCc1nc2c(N)nc3cc(C(=O)OC)ccc3c2n1CCCO`, the outcome in [1] was inactive. This compound also displayed an EC50 at Toll-like receptor 7 of 1.72 µM.

In the case of `CCCCc1nc2c(N)nc3cc(C(=O)OC)ccc3c2n1CCc1ccc(C(=O)O)cc1`, the result in assay [1] and in assay [2] was inactive.

For `CCCCc1nc2c(N)nc3cc(C(=O)OC)ccc3c2n1Cc1ccc(C(=O)O)cc1`, the result in assay [1] was inactive.

Turning to `CCCCc1nc2c(N)nc3cc(C(=O)OC)ccc3c2n1CCCCN`, the result in assay [2] was inactive.

Regarding `CCCCc1nc2c(N)nc3cc(C(=O)OC)ccc3c2n1CCN`, the result in the assay with PBMC [8], in the assay on PBMC [9] and with PBMC [10] was Active. In addition, the result in [2] was inactive.

Consider `CCCCc1nc2c(N)nc3cc(C(=O)OC)ccc3c2n1CCCCC(=O)OC`, for which, in assay [1], the outcome was inactive.

In the case of `CCCCc1nc2c(N)nc3cc(C(=O)OC)ccc3c2n1CCCSC`, the outcome in assay [1] was inactive.

Take `CCCCc1nc2c(N)nc3cc(C(=O)OC)ccc3c2n1CCSC`: the outcome in assay [1] was inactive. The outcome with PBMC [11], in the assay on PBMC [12] and with PBMC [13] was Active.

`CCCCc1nc2c(N)nc3cc(C(=O)OC)ccc3c2n1CCCCO`: the outcome in assay [1] was inactive. This compound also had an EC50 on Toll-like receptor 7 of 3.21 µM.

Take `CCCCc1nc2c(N)nc3cc(C(=O)OC)ccc3c2n1CC(=O)OC`: the outcome in [1] was inactive.

For the compound `CCCCc1nc2c(N)nc3cc(C(=O)OC)ccc3c2n1CCC(=O)OC`, in assay [1], the outcome was inactive.

For `CCCCc1nc2c(N)nc3cc(C(=O)OC)ccc3c2n1CCCC(=O)OC`, in [1], the outcome was inactive.

With `CCCCc1nc2c(N)nc3cc(C(=O)OC)ccc3c2n1CCCN`, the result in assay [2] was inactive. The compound further gave an EC50 on Toll-like receptor 8 of 26.7 µM.

Consider `CCCCc1nc2c(N)nc3cc(C(=O)OC)ccc3c2n1CCCCC(=O)O`, for which the result in [1] and in [2] was inactive.

Consider `CCCCc1nc2c(N)nc3cc(C(=O)OC)ccc3c2n1CC(C)(C)O`, for which the EC50 on Toll-like receptor 7 was determined as 1.69 µM; on Toll-like receptor 8 it was 20.9 µM.
